Data on one compound can be found in patent publication US9012445B2, “Substituted 4-(1H-pyrazol-4-yl)benzyl analogues as positive allosteric modulators of mAChR M1 receptors” (Vanderbilt University, priority 2012, dated 2015).

SMILES strings stand for the structures.

For orientation: Emax means the maximal effect, on the per cent scale that the assay sets. What is called EC50 is the concentration that produces a half-maximal response.

For the test, the target named is T1, mAChR M1 (Homo sapiens, UniProt P11229).
T1 construct: expressed in transfected cells; host or cells: CHO-K1
T1 sequence (P11229 1-460): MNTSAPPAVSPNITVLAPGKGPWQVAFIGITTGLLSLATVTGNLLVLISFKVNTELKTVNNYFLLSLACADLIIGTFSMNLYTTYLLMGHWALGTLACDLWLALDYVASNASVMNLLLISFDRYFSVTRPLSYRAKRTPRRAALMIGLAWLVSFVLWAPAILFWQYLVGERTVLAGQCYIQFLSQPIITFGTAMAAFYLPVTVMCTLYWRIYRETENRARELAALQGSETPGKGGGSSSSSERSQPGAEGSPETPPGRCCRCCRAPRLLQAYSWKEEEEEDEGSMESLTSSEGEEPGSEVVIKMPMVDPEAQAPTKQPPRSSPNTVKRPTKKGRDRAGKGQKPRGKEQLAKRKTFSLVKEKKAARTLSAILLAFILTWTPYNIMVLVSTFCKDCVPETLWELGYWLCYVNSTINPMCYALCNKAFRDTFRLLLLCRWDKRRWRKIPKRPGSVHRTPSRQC
The test can be described thus: mAChR M1 cell-based functional assay (calcium mobilization, potentiation of EC20 acetylcholine response in CHO-K1 cells). An excerpt:
Chinese hamster ovary (CHO-K1) cells stably expressing rat (r)M1 were purchased from the American Type Culture Collection and cultured according to their indicated protocol. CHO cells stably expressing human (h)M2, hM3, and hM5 were described previously (Levey, A. I., et al., J. Neurosci. 1991, 11, 3218-3226.); hM1 and hM4 cDNAs were purchased from Missouri S&T cDNA Resource; rM4 cDNA was provided by T. I. Bonner (National Institutes of Health, Bethesda, Md.). rM2 and rM3 were cloned from a rat brain cDNA library and sequence verified. hM1, rM2, rM3, hM4, and rM4 cDNAs were used to stably transfect CHO-K1 cells purchased from the American Type Culture Collection using Lipofectamine-2000. To make stable rM2, hM2, hM4, and rM4 cell lines for use in calcium mobilization assays, these cells also were stably transfected with a chimeric G-protein (Gqi5) (provided by B. R. Conklin, University of California, San Francisco) using Lipofectamine 2000. rM1, hM1, rM3, hM3, rM5, and hM5 cells were grown in Ham's F-12 medium containing 10% heat-inactivated fetal bovine serum (FBS), 20 mM HEPES, and 50 μg/mL G418 sulfate. rM2-Gqi5, hM2Gqi5, and hM4Gqi5 cells were grown in the same medium also containing 500 μg/mL Hygromycin B. Stable rM4Gqi5 cells were grown in DMEM containing 10% heat-inactivated FBS, 20 mM HEPES, 400 μg/mL G418 sulfate, and 500 μg/mL Hygromycin B.
For high throughput measurement of agonist-evoked increases in intracellular calcium, CHO-K1 cells stably expressing muscarinic receptors were plated in growth medium lacking G418 and hygromycin at 15,000 cells/20 μL/well in Greiner 384-well black-walled, tissue culture (TC)-treated, clear-bottom plates (VWR). Cells were incubated overnight at 37° C. and 5% CO2. The next day, cells were washed using an ELX 405 (BioTek) with four washes (80 μL) of assay buffer then […], 20 μL of Fluo-4/acetoxymethyl ester (Invitrogen, Carlsbad, Calif.) prepared as a 2.3 mM stock in DMSO and mixed in a 1:1 ratio with 10% (w/v) Pluronic F-127 and diluted in assay buffer was added to the wells and the cell plates were incubated for […] at 37° C. and 5% CO2. Dye was removed by washing with the ELX 405 (four 80 μL washes of assay buffer) then aspirated to 20 μL. Compound master plates were formatted in an 11 point CRC format (1:3 dilutions) in 100% DMSO with a starting concentration of 10 mM using the BRAVO liquid handler (Agilent). Test compound CRCs were then transferred to daughter plates ([…]) using the Echo acoustic plate reformatter (Labcyte, Sunnyvale, Calif.) and then diluted into assay buffer (40 μL) to a 2× stock using a Thermo Fisher Combi (Thermo Fisher Scientific, Waltham, Mass.).
Calcium flux was measured using the Functional Drug Screening System (FDSS) 6000 (Hamamatsu Corporation, Tokyo, Japan) as an increase in the fluorescent static ratio. Compounds were applied to cells (20 μL, 2×) using the automated system of the FDSS 6000 at 4 s into the 300 s protocol and the data were collected at 1 Hz. At 144 s into the 300 s protocol, 10 μL of an EC20 concentration of the muscarinic receptor agonist acetylcholine was added (5×), followed by the addition of 12 μL an EC80 concentration of acetylcholine at the 230 s time point (5×). Agonist activity was analyzed as a concentration-dependent increase in calcium mobilization upon compound addition. Positive allosteric modulator activity was analyzed as a concentration-dependent increase in the EC20 acetylcholine response. Antagonist activity was analyzed as a concentration-dependent decrease in the EC80 acetylcholine response. Concentration-response curves were generated using a four-parameter logistical equation in XLFit curve fitting software (IDBS, Bridgewater, N.J.) for Excel (Microsoft, Redmond, Wash.) or Prism (GraphPad Software, Inc., San Diego, Calif.).
The calcium mobilization assay was also used to determine “efficacy”. […]
A general note: Calcium assays in cells follow changes in intracellular calcium, usually with a dye or a luminescent sensor.

As for `Cn1cc(-c2ccc(Cn3cc(S(=O)(=O)CCNC(=O)c4ccno4)c4c(F)cc(F)cc43)c(F)c2)cn1` [Compound B2], the maximal effect (Emax) (CHO-K1, maximal response of curve fit or response at 30 μM test compound, as % of response to an about EC80 ACh concentration, read-out: Emax (% ACh maximum at 30 μM)) worked out at 27%. Where the note is “positive allosteric modulation of EC20 acetylcholine response, >10,000 estimated where no plateau in the curve”, the EC50 was 2800 nM.
